Source: US6407235B1, “Prodrug acid esters of [2-(4-benzyl-3-hydroxy-piperidin-1-yl)-ethansulfonyl]phenol” (Hoffmann-La Roche Inc., priority 2001, dated 2002)
Converted amounts (≈) assume the structure as drawn. Read-outs that look alike come from different tables or passages of the source.

Assays:
Solubility = format: physicochemical; settings: for Solubility at pH 7.4 relative to the parent compound, suggested/assumed from pH 4.0 data: pH 7.4, not measured directly
Stability in solution = format: physicochemical; settings: pH 7.4, 24 hours
NMDA receptor subtype = settings: known from WO 00/75109; cited from earlier work
[1] = pH 4, aqueous buffer, read-out: Solubility (μg/ml at pH 4)
[2] = pH 7, aqueous buffer, read-out: Solubility (μg/ml at pH 7)

Row | solubility (Solubility; [1]) [µg/mL] | Solubility at pH 7.4 relative to the parent compound, suggested/assumed from pH 4.0 data (Solubility) | Stability at pH 7.4 over 24 hours (Stability in solution) | Compound | solubility (Solubility; [2]) [µg/mL] | solubility (Solubility; aqueous buffer, pH 4.8 (printed in the cell of the pH 4 column), read-out: Solubility (μg/ml) at pH 4.8) [µg/mL] | Water solubility at physiological pH (Solubility; physiological pH) | NMDA receptor subtype specific blocker (NMDA receptor subtype)
1 | 8500 (≈ 14.7 mM) | – | – | O=C(Oc1ccc(S(=O)(=O)CCN2CC[C@H](Cc3ccccc3)[C@H](O)C2)cc1)c1cccc(CN2CCOCC2)c1 [Example 6, 3-Morpholin-4-ylmethyl-benzoic Acid (3S,4S)-4-[2-(4-benzyl-3-hydroxy-piperidin-1-yl)-ethanesulfonyl]-phenyl Ester] | 89 (≈ 0.154 mM) | – | – | –
2 | 86600 (≈ 166 mM) | higher solubility | unstable | CNCc1cccc(C(=O)Oc2ccc(S(=O)(=O)CCN3CC[C@H](Cc4ccccc4)[C@H](O)C3)cc2)c1 [Example 9, 3-Methylaminomethyl-benzoic Acid (3S,4S)-4-[2-(4-benzyl-3-hydroxy-piperidin-1-yl)-ethanesulfonyl]-phenyl Ester] | – | – | – | –
3 | 1800 (≈ 3.78 mM) | – | – | O=C(O)CCC(=O)Oc1ccc(S(=O)(=O)CCN2CC[C@H](Cc3ccccc3)[C@H](O)C2)cc1 [Example 1, Succinic Acid Mono-{(3S,4S)-4-[2-(4-benzyl-3-hydroxy-piperidin-1-yl)-ethanesulfonyl]-phenyl}ester] | 7690 (≈ 16.2 mM) | – | – | –
4 | 26100 (≈ 49.9 mM) | higher solubility | unstable | CNCc1ccc(C(=O)Oc2ccc(S(=O)(=O)CCN3CC[C@H](Cc4ccccc4)[C@H](O)C3)cc2)cc1 [Example 10, 4-Methylaminomethyl-benzoic Acid (3S,4S)-4-[2-(4-benzyl-3-hydroxy-piperidin-1-yl)-ethanesulfonyl]-phenyl Ester] | – | – | – | –
5 | – | – | – | O=S(=O)(CCN1CC[C@H](Cc2ccccc2)[C@H](O)C1)c1ccc(O)cc1 [Compound of formula II, (3S,4S)-4-[2-(4-benzyl-3-hydroxy-piperidin-1-yl)-ethanesulfonyl]-phenol, reference compound] | 47 | 7750 | limited water solubility | good NMDA receptor subtype specific blocker
6 | 6710 (≈ 13.2 mM) | higher solubility can be assumed | unstable | NCc1ccc(C(=O)Oc2ccc(S(=O)(=O)CCN3CC[C@H](Cc4ccccc4)[C@H](O)C3)cc2)cc1 [Example 7, 4-Aminomethyl-benzoic Acid (3S,4S)-4-[2-(4-benzyl-3-hydroxy-piperidin-1-yl)-ethanesulfonyl]-phenyl Ester] | – | – | – | –

Row | Compound | solubility (Solubility; [1]) [µg/mL] | Solubility at pH 7.4 relative to the parent compound, suggested/assumed from pH 4.0 data (Solubility) | Stability at pH 7.4 over 24 hours (Stability in solution) | solubility (Solubility; [2]) [µg/mL] | solubility (Solubility; aqueous buffer, pH 4.8 (printed in the cell of the pH 4 column), read-out: Solubility (μg/ml) at pH 4.8) [µg/mL] | Water solubility at physiological pH (Solubility; physiological pH) | NMDA receptor subtype specific blocker (NMDA receptor subtype)
7 | O=P(O)(O)Oc1ccc(S(=O)(=O)CCN2CC[C@H](Cc3ccccc3)[C@H](O)C2)cc1 [Example 2, Phosphoric Acid Mono-{(3S,4S)-4-[2-(4-benzyl-3-hydroxy-piperidin-1-yl)-ethanesulfonyl]-phenyl}ester] | 594 (≈ 1.3 mM) | – | – | > 37600 | – | – | –
